Reference: patent publication US9790202B2, “Anthranilamide derivatives as pesticides” (priority 2010, dated 2017)

Columns and labels:
[1] = tested on: larvae of the mustard beetle (Phaedon cochleariae); experiment: Phaedon test (PHAECO spray treatment), Use Example 6, comparison with prior art; type: in vivo; details: 168 h, 7 d
Protocol: (§1) Phaedon Test (PHAECO Spray Treatment)
Solvent: 78.0 parts by weight of acetone
1.5 parts by weight of dimethylformamide
(§2) Emulsifier: 0.5 part by weight of alkylaryl polyglycol ether
To produce an appropriate active ingredient formulation, 1 part by weight of active ingredient is mixed with the stated amounts of solvent and emulsifier, and the concentrate is diluted with emulsifier-containing water to the desired concentration. Leaf discs of Chinese cabbage (Brassica pekinensis) are sprayed with an active ingredient formulation of the desired concentration and, after drying, populated with larvae of the mustard beetle (Phaedon cochleariae).
After the desired period of time, the effect in % is determined. 100% means that all beetle larvae have been killed; 0% means that no beetle larvae have been killed.

[2] = log P determination by HPLC on reversed-phase columns (C 18), acidic range; type: physicochemical; details: for chromatographic logP: pH 2.7, LOGP (HCOOH)
Protocol: The log P values reported in the table above and in the Preparation Examples were determined in accordance with EEC Directive 79/831 Annex V.A8 by HPLC (High Performance Liquid Chromatography) on reversed-phase columns (C 18), with the following methods:
The LC-MS determination in the acidic range is effected at pH 2.7 using 0.1% aqueous formic acid and acetonitrile (contains 0.1% formic acid) as eluents, linear gradient from 10% acetonitrile to 95% acetonitrile
The calibration was effected with unbranched alkan-2-ones (having 3 to 16 carbon atoms) with known log P values (log P values determined on the basis of the retention times by linear interpolation between two successive alkanones).

[3] = tested on: green peach aphid (Myzus persicae); experiment: Myzus test (MYZUPE spray treatment); type: in vivo; details: in Brassica rapa, foliar, 144 h, read-out: efficacy in % (aphids killed)
Protocol: Myzus Test (MYZUPE Spray Treatment)
Solvent: 78 parts by weight of acetone 1.5 parts by weight of dimethylformamide
as §2
(§3) To produce an appropriate active ingredient formulation, 1 part by weight of active ingredient is mixed with the stated amounts of solvent and emulsifier, and the concentrate is diluted with emulsifier-containing water to the desired concentration.
Leaf discs of Chinese cabbage (Brassica pekinensis) infested by all stages of the green peach aphid (Myzus persicae) are sprayed with an active ingredient formulation of the desired concentration.
After 6 days, the efficacy in % is determined 100% means that all aphids have been killed; 0% means that no aphids have been killed.

[4] = tested on: caterpillars of the armyworm (Spodoptera frugiperda); experiment: Spodoptera frugiperda test (SPODFR spray treatment); type: in vivo; details: for pest or weed control at 100 g/ha: Spodoptera frugiperda, in Zea mays, foliar, 168 h, read-out: efficacy in % (caterpillars killed)
Protocol: Spodoptera frugiperda Test (SPODFR Spray Treatment)
(§4) Solvent: 78.0 parts by weight of acetone 1.5 parts by weight of dimethylformamide
as §2, §3
Leaf discs of maize (Zea mays) are sprayed with an active ingredient formulation of the desired concentration and, after drying, populated with caterpillars of the armyworm (Spodoptera frugiperda).
After 7 days, the efficacy in % is determined 100% means that all caterpillars have been killed; 0% means that no caterpillars have been killed.

[5] = tested on: Lucilia cuprina 1st instar larvae; experiment: Lucilia cuprina test (LUCICU); type: in vivo; details: 100 ppm, treated horsemeat, after 48 h
Protocol: Lucilia cuprina Test (LUCICU)
Species: Lucilia cuprina 1st larval stage (age: 24 hours)
(§5) Solvent: dimethyl sulphoxide
(§6) To prepare an appropriate active ingredient formulation, 10 mg of active ingredient are mixed with 0.5 ml of dimethyl sulphoxide and the concentrate is diluted with water to the desired concentration.
Vessels containing 1 cm^3 of horsemeat which had been treated with the active ingredient formulation are populated with about 20 Lucilia cuprina 1st instar larvae.
After 48 h, the kill in % is determined 100% means that all larvae have been killed; 0% means that no larvae have been killed.

adult Musca domestica = experiment: Musca domestica test (MUSCDO); type: in vivo; details: 100 ppm, treated sponge, after 2 days
Protocol: Musca domestica Test (MUSCDO)
as §5, §6
Vessels containing a sponge treated with the active ingredient preparation of the desired concentration are populated with 10 adult Musca domestica.
After 2 days, the kill in % is determined 100% means that all flies have been killed; 0% means that no flies have been killed.

[6] = tested on: larvae of the mustard beetle (Phaedon cochleariae); experiment: Phaedon test (PHAECO spray treatment), Use Example 2; type: in vivo; details: in Brassica rapa, foliar, 168 h, read-out: efficacy in % (beetle larvae killed)
Protocol: as §1, §4, §2, §3
Leaf discs of Chinese cabbage (Brassica pekinensis) are sprayed with an active ingredient formulation of the desired concentration and, after drying, populated with larvae of the mustard beetle (Phaedon cochleariae).
After 7 days, the efficacy in % is determined 100% means that all beetle larvae have been killed; 0% means that no beetle larvae have been killed.

| Structure (SMILES) | larval mortality at 20 g/ha [1] [%] | LOGP (HCOOH) ([2]; pH 2.7) | pest or weed control at 100 g/ha [3] [%] | pest or weed control at 100 g/ha [4] [%] | kill in % (larvae killed) [5] [%] | kill in % (flies killed) (adult Musca domestica) [%] | chromatographic logP [2] | pest or weed control at 100 g/ha [6] [%] | efficacy in % (caterpillars killed) ([4]; 100 g/ha, spray on maize leaf discs, after 7 days) [%] |
| --- | --- | --- | --- | --- | --- | --- | --- | --- | --- |
| CNC(=O)c1cc(C)cc(C)c1NC(=O)c1cc(Cn2nnc(C(F)(F)F)n2)nn1-c1ncccc1Cl [Comparative Example, reference compound] | 0 |  |  |  |  |  |  |  |  |
| CC(=O)c1cc(C)c(NC(=O)c2cc(Cn3nnc(C(F)(F)F)n3)nn2-c2ncccc2Cl)c(C(=O)NC(C)(C)C)c1 [Compound 1] |  | 3.26 | 100 | 100 | 100 | 100 |  |  |  |
| CNC(=O)c1cc(C(=O)OC)cc(C)c1NC(=O)c1cc(Cn2nnc(C(F)(F)F)n2)nn1-c1ncccc1Cl [Compound 2] |  |  | 90 | 100 | 100 | 90 | 2.77 | 100 |  |
| COC(=O)c1cc(C)c(NC(=O)c2cc(Cn3nnc(C(F)(F)F)n3)nn2-c2ncccc2Cl)c(C(=O)NC(C)(C)C)c1 [Compound 4] |  |  |  | 100 | 100 | 100 | 3.52 | 100 |  |
| COC(=O)c1cc(C)c(NC(=O)c2cc(Cn3nnc(C(F)(F)F)n3)nn2-c2ncccc2Cl)c(C(N)=O)c1 [Compound 5] |  |  | 90 | 100 | 100 |  | 2.56 | 100 |  |
| CC(=O)c1cc(C)c(NC(=O)c2cc(Cn3nnc(C(F)(F)F)n3)nn2-c2ncccc2Cl)c(C(=O)NC(C)(C)C)c1 [Compound 6] |  |  |  |  | 100 | 90 | 2.87 |  | 100 |
| CNC(=O)c1cc(C(N)=S)cc(C)c1NC(=O)c1cc(Cn2nnc(C(F)(F)F)n2)nn1-c1ncccc1Cl [Compound 23] | 100 |  | 100 | 100 |  |  | 2.26 | 100 |  |
